Measurements as given in paper PMC10011554, “BET inhibitor trotabresib in heavily pretreated patients with solid tumors and diffuse large B-cell lymphomas” (Nature Communications, 2023).
Several values for one entry are separate records, joined by “and”; a condition that tells them apart may be missing. Equal entries are not always repeated. Where two headings read alike, the source gives them in different places.

How the values were obtained:
[1] = tested on: advanced or unresectable solid tumors; assay: Tumor response (RECIST v1.1/RANO), PFS and OS in phase I study, parts A and C; format: in vivo, human
Method: Secondary objectives were the preliminary efficacy of trotabresib in terms of clinical benefit rate (CR + PR + SD of ≥4 months’ duration), ORR (CR + PR), duration of response or SD, PFS, OS, and the PK of trotabresib. In addition, part C assessed the effects of food on the PK and the safety of trotabresib as a secondary objective. The pharmacodynamics of trotabresib were assessed as an exploratory objective.
Response was assessed using Response Evaluation Criteria in Solid Tumors (RECIST) v1.1[54] in patients with solid tumors, International Working Group criteria in patients with DLBCL[55], and Response Assessment in Neuro-Oncology (RANO) criteria[56] in patients with CNS tumors (astrocytoma and glioblastoma). For patients with BCC, the response was assessed using a combination of radiological assessment of target lesions per RECIST v1.1, digital clinical photography assessed per World Health Organization (WHO) criteria, and punch biopsies to confirm CR. PK parameters assessed included Cmax, tmax, AUC, t½, apparent clearance (CL/F), and apparent volume of distribution (Vz/F).
Bayesian logistic regression model based on dose-limiting toxicity was used to provide initial guidance for dose recommendations in the dose-escalation phase. The final decision was reached by considering the totality of safety, PK, and PD data. For binary efficacy endpoints, two-sided 95% Clopper–Pearson exact confidence intervals were provided. For time-to-event endpoints (PFS and OS), the median and 95% CI were estimated using the Kaplan–Meier method.

[2] = tested on: MYC gene expression in Raji Burkitt's lymphoma cells; set-up: method as in Investigator's Brochure; settings: ref Investigator's Brochure, read-out: mean IC50, inhibition of MYC gene expression; cited from earlier work
[3] = tested on: FOSL1 gene expression in U-87 glioblastoma cells; set-up: method as in Investigator's Brochure; settings: U-87 cells, ref Investigator's Brochure; read-out: IC50, inhibition of FOSL1 gene expression; cited from earlier work
[4] = tested on: SU-DHL-2 (ABC DLBCL); set-up: method as in Report CC-90010-Pharm-1018; settings: SU DHL 2, Experiment 2, ref Report CC-90010-Pharm-1018; read-out: absolute IC50, proliferation; cited from earlier work
[5] = tested on: TMD8 (ABC DLBCL); set-up: method as in Report CC-90010-Pharm-1018; settings: TMD8, Experiment 1, ref Report CC-90010-Pharm-1018; read-out: absolute IC50, proliferation; cited from earlier work
[6] = tested on: KARPAS-422 (GCB DLBCL); set-up: method as in Report CC-90010-Pharm-1018; settings: KARPAS-422, Experiment 1, ref Report CC-90010-Pharm-1018; read-out: absolute IC50, proliferation; cited from earlier work
[7] = tested on: SU-DHL-4 (DOX-R); set-up: method as in Report CC-90010-Pharm-1018; settings: Table 2, ref Report CC-90010-Pharm-1018, read-out: absolute IC50, proliferation; cited from earlier work
[8] = tested on: 14 PDX-derived GBM tumor models; set-up: method as in Investigator's Brochure; settings: ref Investigator's Brochure, cited from earlier work
[9] = tested on: BR0869f ER-PR-Her2+ PDX-derived breast cancer model; set-up: method as in Investigator's Brochure; settings: 7 or 14 days, ref Investigator's Brochure, read-out: mean IC50, colony formation; cited from earlier work
[10] = set-up: method as in Investigator's Brochure; settings: 2 hours postdose, ref Investigator's Brochure, cited from earlier work
[11] = tested on: GBM15 GBM PDX; set-up: method as in Unpublished data from Celgene Corporation; settings: Day 29, ref Unpublished data from Celgene Corporation, cited from earlier work
[12] = tested on: P-gp; set-up: method as in Investigator's Brochure; settings: ref Investigator's Brochure, read-out: IC50, transporter inhibition; cited from earlier work
[13] = tested on: bacterial reverse mutation; set-up: method as in Investigator's Brochure; settings: non-GLP, ref Investigator's Brochure; cited from earlier work
[14] = part A (N = 69), 02 Dec 2019 cutoff

For `Cn1cc(-c2cc(S(C)(=O)=O)ccc2OCC2CC2)c2ccccc2c1=O` [trotabresib], the “patients on treatment ≥24 cycles with sustained SD” value ([1]; part A) was “five”, the “clinical benefit rate (CBR; CR, PR, or SD ≥4 months)” value ([1]; part A (N = 69)) was 17.4% and the “objective response rate (ORR; CR or PR)” value ([1]; part A (N = 69)) was 2.9%. For the same molecule, the “subjects with SD” value [1, 14] was 33.3%, the “subjects with SD ≥ 4 months” value [1, 14] was 14.5% and the “subjects with confirmed CR” value [1, 14] was 1.4%. For the same molecule, the “subjects with confirmed PR” value [1, 14] was 1.4%, the “Median OS (95% CI)” value ([1]; part A (n = 69)) was 189 (161–258) days and the “Median PFS (95% CI)” value ([1]; part A (n = 69)) was 57 (52–81) days. The OS range ([1]; part A (n = 69)) was 15 to 853 days, the PFS range ([1]; part A (n = 69)) was 11 to 945 days and the “subjects with stable disease” value ([1]; part A, 10 December 2018 cutoff) was 27.5%. The “duration of confirmed partial response” value ([1]; part A, one patient with endometrial cancer) was 8 cycles, the “duration of complete response” value ([1]; part A, one patient with grade 2 diffuse astrocytoma) was 19 cycles and the total treatment duration ([1]; part A, one patient with salivary gland cancer, ongoing at cycle 53) was 4.0 years. For the same molecule, the time on treatment ([1]; part A, one patient with thymic cancer (38 cycles)) was 3.1 years, the “further patients on treatment ≥1 year with sustained SD” value ([1]; part C) was “seven” and the “best response CR” value ([1]; part C (N = 41)) was 0%. For the same molecule, the “best response PD” value ([1]; part C (N = 41)) was 19.5%, the “best response PR” value ([1]; part C (N = 41)) was 0% and the CBR ([1]; part C (N = 41), treated population) was 31.7%. The ORR ([1]; part C (N = 41), treated population, confirmed responses) was 0.0%, the “Median OS (95% CI)” value ([1]; part C (n = 41)) was 508 days and 508 (239–NE) days and the “Median PFS (95% CI)” value ([1]; part C (n = 41)) was 114 (84–239) days. The OS range ([1]; part C (n = 41)) was 33 to 508 days, the PFS range ([1]; part C (n = 41)) was 33 to 438 days and the “reduction in tumor size (minor response)” value ([1]; part C, one patient with refractory high-grade astrocytoma) was 38%. The treatment duration ([1]; part C, one patient with treatment-refractory high-grade astrocytoma, ongoing) was 2.5 years, the IC50 [2] was 60 nM and the IC50 [3] was 30 nM. The IC50 [4] was 100 nM, the IC50 [5] was 190 nM and the IC50 [6] was 320 nM. For the same molecule, the IC50 [7] was 899 nM, the IC50 ([8]; read-out: overall mean IC50, colony formation) was 620 ± 130 nM and the “activity range of IC50 values” [8] was 18 fold. For the same molecule, the IC50 [9] was 120 ± 10 nM, the maximally-measured tumor level ([10]; COH70, 2 mg/kg) was 1.3 ± 0.3 µM and the maximally-measured tumor level ([10]; COH70, 10 mg/kg) was 6.7 ± 1.7 µM. For the same molecule, the “mean percent TGI” value ([11]; GBM15, 15 mg/kg/dose (5/2)) was 65%, the “mean percent TGI” value ([11]; GBM15, 25 mg/kg/dose (3/4)) was 65% and the “mean percent TGI” value ([11]; GBM15, 37.5 mg/kg/dose (2/5)) was 70%. For the same molecule, the IC50 [12] was 2000 nM and the “mutagenicity (Ames)” value [13] was “non-mutagenic”.
